Reference: patent US20230240293A1, “FUNGICIDAL COMPOSITIONS” (SYNGENTA CROP PROTECTION AG, priority 2020, published 2023)
Numbered stars: 1 amine (or outer) side, 2 acyl side, 3 side chain; on linkers, the order of the positions; unused ones are H or OH. Square brackets hold non-standard residues; d marks the D form. Peptide text beside a SMILES is read from it. ξ: configuration not given here. ξNMeVal(3-OH) = CNC(C(=O)O)C(C)(C)O; NMeF = CN[CH](Cc1ccccc1)C(=O)O; X1 = CCC(C)C(O[*:1])C(=O)[*:2]; NMeV = CN[CH](C(=O)O)C(C)C

Key:
[1] = system: Botrytis cinerea; assay: microbe, parasite or virus in culture; assay type: cell-based; conditions: 72 hours
Excerpt: (§1) A synergistic effect exists whenever the action of an active ingredient combination is greater than the sum of the actions of the individual components. The action to be expected E for a given active ingredient combination obeys the so-called COLBY formula and can be calculated as follows (COLBY, S.R. “Calculating synergistic and antagonistic responses of herbicide combination”, Weeds, Vol. 15, pages 20-22; 1967): • ppm = milligrams of active ingredient (= a.i.) per liter of spray mixture, • X = % action by active ingredient (A) using p ppm of active ingredient, • Y = % action by active ingredient (B) using q ppm of active ingredient. • According to COLBY, the expected (additive) action of active ingredients (A)+(B) using p+q ppm of active ingredient is • [formula]
A standard description of the liquid culture tests is provided in Example 1.
Mycelia fragments or conidia suspensions of a fungus, prepared either freshly from liquid cultures of the fungus or from cryogenic storage, are directly mixed into nutrient broth. DMSO solutions of the test compound (max. 10 mg/mL) is diluted with 0.025% Tween20 by factor 50 and 10 µL of this solution is pipetted into a microtiter plate (96-well format). […] The test plates are incubated in the dark at 24° C. and 96% relative humidity (rh). The inhibition of fungal growth is determined photometrically and visually after 3 - 7 days, depending on the pathosystem, and percent antifungal activity relative to the untreated check is calculated.
Conidia of the fungus from cryogenic storage were directly mixed into nutrient broth (PDB potato dextrose broth). After placing a DMSO solution of the test compositions into a microtiter plate (96-well format), the nutrient broth containing the fungal spores was added.

[2] = system: Alternaria solani; assay: microbe, parasite or virus in culture; assay type: cell-based
Excerpt: as §1
The compositions according to the invention are tested for their biological (fungicidal) activity as dimethylsulfoxide (DMSO) solutions using one or more of the following protocols (Examples 1-1 and 1-2). A standard description of the liquid culture tests is provided in Example 1.
Mycelia fragments or conidia suspensions of a fungus, prepared either freshly from liquid cultures of the fungus or from cryogenic storage, are directly mixed into nutrient broth. DMSO solutions of the test compound (max. 10 mg/mL) is diluted with 0.025% Tween20 by factor 50 and 10 µL of this solution is pipetted into a microtiter plate (96-well format). The nutrient broth containing the fungal spores/mycelia fragments is then added to give an end concentration of the tested compound. The test plates are incubated in the dark at 24° C. and 96% relative humidity (rh). […]
Conidia of the fungus from cryogenic storage were directly mixed into nutrient broth (PDB potato dextrose broth). After placing a DMSO solution of the test compositions into a microtiter plate (96-well format) the nutrient broth containing the fungal spores was added.

CCC(C)C1NC(=O)C2CCCN2C(=O)C(Cc2ccccc2)N(C)C(=O)C(Cc2ccccc2)NC(=O)C(C(C)C)N(C)C(=O)C(C(C)CC)OC(=O)C(C(C)(C)O)N(C)C(=O)C(CC(C)C)NC(=O)C(C(C)C)N(C)C1=O (stereo not drawn) [Aureobasidin A] (cyclo([ξNMeVal(3-OH)][X1][NMeV]F[NMeF]PI[NMeV]L); configuration not given here)
(A) inhibition ([1]; Aureobasidin A 0.0025 ppm alone (mefentrifluconazole table)): 8% | (A) inhibition ([1]; Aureobasidin A 0.0050 ppm alone (mefentrifluconazole table)): 7% | (A) inhibition ([1]; Aureobasidin A 0.01 ppm alone (imazalil table)): 27% | (A) inhibition ([1]; Aureobasidin A 0.02 ppm alone (fenhexamid table)): 53% | (A) inhibition ([1]; Aureobasidin A 0.02 ppm alone (imazalil table)): 46% | (A) inhibition ([1]; Aureobasidin A 0.0200 ppm alone (mefentrifluconazole table)): 22% | (A) inhibition ([2]; Aureobasidin A 0.0001 ppm alone, growth determined photometrically after 48 hours): 0% | (A) inhibition ([2]; Aureobasidin A 0.0002 ppm alone, 48 hours): 11% | (A) inhibition ([2]; Aureobasidin A 0.0006 ppm alone, 48 hours): 0% | (A) inhibition ([2]; Aureobasidin A 0.0012 ppm alone, 48 hours): 0% | (A) inhibition ([2]; Aureobasidin A 0.0025 ppm alone, 48 hours): 0% | (A) inhibition ([2]; Aureobasidin A 0.0050 ppm alone, 48 hours): 0% | (A) inhibition ([2]; Aureobasidin A 0.04 ppm alone (fenhexamid table), 48 hours): 40%

CC1COC(Cn2cncn2)(c2ccc(Oc3ccc(Cl)cc3)cc2Cl)O1 (stereo not drawn) [Difenoconazole, difenoconazole, reference compound]
inhibition at 0.0156 ppm ([2]; Alternaria solani, Difenoconazole 0.0156 ppm alone, 48 hours, read-out: (B) inhibition): 30% | inhibition at 0.0313 ppm ([2]; Alternaria solani, Difenoconazole 0.0313 ppm alone, 48 hours, read-out: (B) inhibition): 43% | inhibition at 0.0625 ppm ([2]; Alternaria solani, Difenoconazole 0.0625 ppm alone, 48 hours, read-out: (B) inhibition): 65%

CC1(C(=O)Nc2ccc(O)c(Cl)c2Cl)CCCCC1 [Fenhexamid, fenhexamid, reference compound]
inhibition at 0.0125 ppm ([1]; Botrytis cinerea, Fenhexamid 0.0125 ppm alone, read-out: (B) inhibition): 2% | inhibition at 0.1 ppm ([2]; Alternaria solani, Fenhexamid 0.10 ppm alone, 48 hours, read-out: (B) inhibition): 0%

C=CCOC(Cn1ccnc1)c1ccc(Cl)cc1Cl (stereo not drawn) [Imazalil, imazalil, reference compound]
inhibition at 0.0625 ppm ([1]; Botrytis cinerea, Imazalil 0.0625 ppm alone, read-out: (B) inhibition): 5% | inhibition at 0.125 ppm ([1]; Botrytis cinerea, Imazalil 0.1250 ppm alone, read-out: (B) inhibition): 22%

CC(O)(Cn1cncn1)c1ccc(Oc2ccc(Cl)cc2)cc1C(F)(F)F (stereo not drawn) [Mefentrifluconazole, mefentrifluconazole, reference compound]
(B) inhibition ([1]; Mefentrifluconazole 0.0250 ppm alone): 27%
